# Test results from US20240174680A1, “CDK2 INHIBITORS AND METHODS OF USING THE SAME” (Cedilla Therapeutics, Inc., priority 2021, published 2024).
# Target: CDK2/Cyclin E1 (Homo sapiens, UniProt P24941)
# Experiment: CDK2/Cyclin E1 Caliper LabChip EZ Reader mobility shift assay
# Type: biochemical
# Parameters: purchased Eurofins 14-475
# Conditions: read-out: Caliper Assay (CDK2/CCNE1): IC50
# Procedure: Inhibition of CDK2/Cyclin E1 activity in the presence of compounds of the present disclosure was evaluated using a Caliper LabChip® EZ Reader mobility shift assay. In the assay, CDK2/Cyclin E1 (Eurofins, 14-475) catalyzed the phosphorylation of a fluorescently tagged peptide 5-FAM-QSPKKG-CONH2 (PerkinElmer, FL Peptide 18) which induced a difference in capillary electrophoresis mobility. The peptide substrate and product were measured, and the conversion ratio was used to determine the inhibition (as % activity and IC50 values) of CDK2/Cyclin E1. Reactions contained 50 mM HEPES pH 7.5, 10 mM MgCl2, 1 mM EDTA, 2 mM DTT, 0.01% Brij35, 0.5 mg/mL BSA, 0.1% DMSO, 2.5 nM CDK2/Cyclin E1, 100 μM ATP, and 1.5 μM fluorescent peptide substrate.
# Dose titrations of inhibitors in 100% DMSO were combined with 3.25 nM CDK2/Cyclin E1 and 130 μM of ATP in reaction buffer. The mixtures were incubated for 30 minutes before the addition of fluorescent peptide substrate to initiate the kinase reaction. The final conditions were 2.5 nM CDK2/Cyclin E1, 100 μM ATP, and 1.5 μM fluorescent peptide. The reactions were stopped after 100 minutes with the addition of EDTA (400 mM final EDTA concentration). The stopped reactions were analyzed on a Caliper LabChip® EZ Reader II. The conversion ratios were normalized to yield % activity, plotted against compound concentration, and fit to a four-parameter equation to determine the IC50 for each compound.
row,IC50,Structure (SMILES)
1,100 to 1000 nM,CNC(=O)[C@@H](NC(=O)C1CN(C(=O)c2cnn(Cc3cccnc3)c2)CC12CN(C(=O)C1CC1(C)C)C2)[C@@H](C)OCc1ccccc1 (some centres unmarked) [I-15]
2,10 to 100 nM,COC1CCN(C(=O)[C@@H](NC(=O)[C@@H]2CN(C(=O)c3sc(C)nc3C)CC23CN(C(=O)[C@H]2CC2(C)C)C3)[C@@H](C)OCC23CCC(CC2)OC3)CC1 [I-451]
3,> 10000 nM,CNC(=O)[C@@H](NC(=O)[C@H]1CN(C(=O)c2cnn(Cc3ccccc3)c2)CC12CN(C(=O)C(C)C)C2)[C@@H](C)OCc1ccccc1 [I-54B]
4,> 10000 nM,"CNC(=O)[C@@H](NC(=O)[C@@H]1CN(C(=O)C2CCNC2)CC12CN(C(=O)[C@H]1CC1(C)C)C2)[C@@H](C)OCc1ccccc1 (stereo partly drawn) [I-70A, (8S)—N-((2S,3R)-3-(benzyloxy)-1-(methylamino)-1-oxobutan-2-yl)-2-((S)-2,2-dimethylcyclopropane-1-carbonyl)-6-(pyrrolidine-3-carbonyl)-2,6-diazaspiro[3.4]octane-8-carboxamide]"
5,1000 to 10000 nM,CC1(C)C[C@@H]1C(=O)N1CC2(CN(C(=O)c3cnn(Cc4ccccc4)c3)C[C@H]2C(=O)N2CCC(OCc3ccccc3)CC2)C1 [I-214]
6,≤ 10 nM,C[C@@H](OCC1CCC(F)(F)CC1)[C@H](NC(=O)[C@@H]1CN(C(=O)c2cncs2)CC12CN(C(=O)[C@H]1CC1(C)C)C2)C(=O)N1CCC(O)CC1 [I-383]
7,100 to 1000 nM,CNC(=O)[C@@H](NC(=O)[C@@H]1CN(C(=O)c2cncs2)CC12CN(C(=O)CC1CC1)C2)[C@@H](C)OCC1CCCCC1 [I-103A]
8,100 to 1000 nM,C[C@@H](OCC12CCC(CC1)OC2)[C@H](NC(=O)[C@@H]1CN(C(=O)c2cnco2)CC12CN(C(=O)[C@H]1CC1(C)C)C2)C(C)(C)O [I-450]
9,1000 to 10000 nM,Cc1ccc(C(C)NC(=O)[C@@H]2CN(C(=O)c3cnn(Cc4ccccc4)c3)CC23CN(C(=O)[C@H]2CC2(C)C)C3)nn1 (some centres unmarked) [I-366]
10,≤ 10 nM,COC[C@H]1CCCN(C(=O)[C@@H](NC(=O)[C@@H]2CN(C(=O)c3cncs3)CC23CN(C(=O)[C@H]2CC2(C)C)C3)[C@@H](C)O[C@@H](C)C2CCCCC2)C1 [I-369]
11,≤ 10 nM,CNC(=O)[C@@H](NC(=O)[C@@H]1CN(C(=O)c2cncs2)CC12CN(C(=O)[C@H]1CC1(C)C)C2)[C@@H](C)OCC12CCC(CC1)CC2 [I-289]
12,> 10000 nM,CO[C@H](C)[C@H](NC(=O)[C@@H]1CN(C(=O)c2cnn(C)c2)CC12CN(C(=O)[C@H]1CC1(C)C)C2)C(=O)N1CCCCC1 [I-303]
13,≤ 10 nM,C[C@@H](OCC1CCCCC1)[C@H](NC(=O)C1CN(C(=O)c2cnn(Cc3ccccc3)c2)CC12CN(C(=O)[C@H]1CC1(C)C)C2)C(=O)N1CCC(F)(F)CC1 (some centres unmarked) [I-149 mixture]
14,≤ 10 nM,C[C@@H](OCC1CCCCC1)[C@H](NC(=O)[C@@H]1CN(C(=O)c2cnn(Cc3ccccc3)c2)CC12CN(C(=O)[C@H]1CC1(C)C)C2)C(=O)N1CCC(CN)CC1 [I-219]
15,10 to 100 nM,C[C@@H](OCC1CCCCC1)[C@H](NC(=O)[C@@H]1CN(C(=O)c2cnn(Cc3ccccc3)c2)CC12CN(C(=O)[C@H]1CC1(C)C)C2)C(=O)N1CCC[C@H]1CN [I-220]
16,1000 to 10000 nM,CNC(=O)[C@@H](NC(=O)[C@@H]1CN(C(=O)c2cnn(Cc3ccccc3)c2)CC12CN(C(=O)[C@H]1CC1(C)C)C2)[C@@H](C)OCC(F)(F)F [I-204]
17,≤ 10 nM,C[C@@H](OCC1CCCCC1)[C@@H](COC1CCC(F)(F)CC1)NC(=O)[C@@H]1CN(C(=O)c2cnn(Cc3ccccc3)c2)CC12CN(C(=O)[C@H]1CC1(C)C)C2 [I-271]

row,IC50,Structure (SMILES)
1,100 to 1000 nM,CNC(=O)[C@@H](NC(=O)[C@@H]1CN(C(=O)c2cnn(Cc3ccccc3)c2)CC12CN(C(=O)CC(C)(C)C)C2)[C@@H](C)OCc1ccccc1 [I-62A]
2,≤ 10 nM,C[C@@H](OCC1CCCCC1)[C@@H](COC1CCCCC1)NC(=O)[C@@H]1CN(C(=O)c2cncs2)CC12CN(C(=O)[C@H]1CC1(C)C)C2 [I-308]
3,≤ 10 nM,COC(=O)[C@@H](NC(=O)[C@@H]1CN(C(=O)c2cnn(Cc3ccccc3)c2)CC12CN(C(=O)[C@H]1CC1(C)C)C2)[C@@H](C)OCC1CCCCC1 [I-475]
4,10 to 100 nM,"CC(O[C@H](C)[C@H](NC(=O)[C@@H]1CN(C(=O)c2cncs2)CC12CN(C(=O)[C@H]1CC1(C)C)C2)C(=O)N1CCCCC1)C1CCCCC1 (stereo partly drawn) [I-284, (8S)—N-((2S,3R)-3-(1-cyclohexylethoxy)-1-oxo-1-(piperidin-1-yl)butan-2-yl)-2-((S)-2,2-dimethylcyclopropane-1-carbonyl)-6-(thiazole-5-carbonyl)-2,6-diazaspiro[3.4]octane-8-carboxamide]"
5,1000 to 10000 nM,CC1(C)C[C@@H]1C(=O)N1CC2(CN(C(=O)c3cnn(Cc4ccccc4)c3)C[C@H]2C(=O)N[C@@H]2CCCN(CC3CCCCC3)C2)C1 [I-212]
6,> 10000 nM,CNC(=O)[C@@H](NC(=O)[C@H]1CN(C(=O)c2scnc2C(F)(F)F)CC12CN(C(=O)[C@H]1CC1(C)C)C2)[C@@H](C)OCC1CCCCC1 [I-163B]
7,> 10000 nM,CNC(=O)[C@@H](NC(=O)[C@@H]1CN(C(=O)c2ccncc2)CC12CN(C(=O)[C@H]1CC1(C)C)C2)[C@@H](C)OCc1ccccc1 [I-46A]
8,> 10000 nM,CNC(=O)[C@@H](NC(=O)[C@H]1CN(Cc2n[nH]c3ccccc23)CC12CN(C(=O)[C@H]1CC1(C)C)C2)[C@@H](C)OCc1ccccc1 [I-143]
9,100 to 1000 nM,CNC(=O)[C@@H](NC(=O)[C@H]1CN(C(=O)c2cnn(Cc3ccccc3)c2)CC12CN(C(=O)[C@H]1CC1(C)C)C2)[C@@H](C)OCC(C)(C)C [I-130B]
10,10 to 100 nM,CNC(=O)[C@@H](NC(=O)[C@@H]1CN(C(=O)c2sc(Cl)nc2Cl)CC12CN(C(=O)[C@H]1CC1(C)C)C2)[C@@H](C)OCC1CCCCC1 [I-232A]
11,≤ 10 nM,C[C@@H](OCC1CCC(F)(F)CC1)[C@H](NC(=O)[C@@H]1CN(C(=O)c2cncs2)CC12CN(C(=O)[C@H]1CC1(C)C)C2)C(C)(C)O [I-313]
12,≤ 10 nM,C[C@@H](OCC1CCC(F)(F)CC1)[C@H](NC(=O)[C@@H]1CN(C(=O)c2cncs2)CC12CN(C(=O)[C@H]1CC1(C)C)C2)C(=O)N1CCC(CO)CC1 [I-397]
13,100 to 1000 nM,"COC[C@H]1CCCN(C(=O)[C@@H](NC(=O)[C@@H]2CN(C(=O)c3cncs3)CC23CN(S(=O)(=O)C(C)(C)C)C3)[C@@H](C)OCC2CCCCC2)C1 [I-447, (S)-2-(tert-butylsulfonyl)-N-((2S,3R)-3-(cyclohexylmethoxy)-1-((S)-3-(methoxymethyl)piperidin-1-yl)-1-oxobutan-2-yl)-6-(thiazole-5-carbonyl)-2,6-diazaspiro[3.4]octane-8-carboxamide]"
14,> 10000 nM,Cc1ccc(CNC(=O)[C@H]2CN(C(=O)c3cnn(Cc4ccccc4)c3)CC23CN(C(=O)[C@H]2CC2(C)C)C3)nn1 [I-381]
15,> 10000 nM,CNC(=O)[C@@H](NC(=O)[C@H]1CN(C(=O)c2scnc2C)CC12CN(C(=O)[C@H]1CC1(C)C)C2)[C@@H](C)OCC1CCCCC1 [I-160B]
16,100 to 1000 nM,CNC(=O)[C@@H](NC(=O)[C@@H]1CN(C(=O)c2cnn(CC3CCOCC3)c2)CC12CN(C(=O)[C@H]1CC1(C)C)C2)[C@@H](C)OCc1ccccc1 [I-95A]
17,1000 to 10000 nM,CC1(C)C[C@@H]1C(=O)N1CC2(CN(C(=O)c3cnn(Cc4ccccc4)c3)C[C@H]2C(=O)N[C@H]2CCCN(C(=O)c3ccccc3)C2)C1 [I-83A]

row,Structure (SMILES),IC50
1,C[C@@H](OCc1ccc(C(F)(F)F)cc1)[C@H](NC(=O)[C@@H]1CN(C(=O)c2cncs2)CC12CN(C(=O)[C@H]1CC1(C)C)C2)C(=O)N1C2CCC1COC2 [I-470],≤ 10 nM
